Reference: patent US20110053925A1, “Hydroxamate-Based Inhibitors of Deacetylases” (Novartis AG, priority 2009, published 2011)

Target: T1, HDAC-1 (Homo sapiens, UniProt Q13547)
T1 construct: made in house; host or cells: Sf9 or Sf21 insect cells (baculovirus, donor vector pFB-GSTX3)
Assay: HDAC Inhibition Assay (purified GST-HDAC protein)
Type: biochemical
Description: The baculovirus donor vector pFB-GSTX3 is used to generate a recombinant baculovirus that can express the HDAC polypeptide. Transfer vectors containing the HDAC coding region are transfected into the DH10Bac cell line (GIBCO) and plated on selective agar plates. Colonies without insertion of the fusion sequence into the viral genome (carried by the bacteria) are blue. Single, white colonies are picked and viral DNAs (bacmid) are isolated from the bacteria by standard plasmid purification procedures. Sf9 cells or Sf21 (American Type Culture Collection) cells are then transfected in […] flasks with the viral DNA using Cellfectin reagent.
Virus-containing media is collected from the transfected cell culture and used for infection to increase its titer. Virus-containing media obtained after two rounds of infection is used for large-scale protein expression. For large-scale protein expression 100 cm^2 round tissue culture plates are seeded with 5×10^7 cells/plate and infected with 1 mL of virus-containing media (at an approximately MOI of 5). After 3 days, the cells are scraped off the plate and centrifuged at 500 rpm for 5 minutes. Cell pellets from 10-20, 100 cm^2 plates, are re-suspended in 50 mL of ice-cold lysis buffer (25 mM tris-HCl, pH 7.5, 2 mM EDTA, 1% NP-40, 1 mM DTT, 1 mM P MSF). The cells are stirred on ice for 15 minutes and then centrifuged at 5,000 rpms for 20 minutes.
The centrifuged cell lysate is loaded onto a 2 mL glutathione-sepharose column (Pharmacia) and is washed thrice with 10 mL of 25 mM tris-HCl, pH 7.5, 2 mM EDTA, 1 mM DTT, 200 mM NaCl. The GST-tagged proteins are then eluted by 10 applications (1 mL each) of 25 mM tris-HCl, pH 7.5, 10 mM reduced-glutathione, 100 mM NaCl, 1 mM DTT, 10% glycerol and stored at −70° C.
HDAC assays with purified GST-HDAC protein are carried out in a final volume of 30 μL containing 15 ng of GST-HDAC protein, 20 mM tris-HCl, pH 7.5, 1 mM MnCl2, 10 mM MgCl2, 1 mM DTT, 3 μg/mL poly(Glu,Tyr) 4:1, 1% DMSO, 2.0 μM ATP (γ-[^33P]-ATP 0.1 μCi). The activity is assayed in the presence or absence of inhibitors. […] Subsequently, […] of the reaction mixture are transferred onto EMMOBILON-PVDF membrane (Millipore) previously soaked for 5 minutes with methanol, rinsed with water, then soaked for 5 minutes with 0.5% H3PO4 and mounted on vacuum manifold with disconnected vacuum source. After spotting all samples, a vacuum is connected and each well rinsed with 200 μL 0.5% H3PO4. Membranes are removed and washed four times on a shaker with 1.0% H3PO4, once with ethanol. Membranes are counted after drying at ambient temperature, mounting in Packard TopCount 96-well frame, and addition of 10 μL/well of MICROSCINT™ (Packard).
• Input: 3×4 μL stopped assay on IMMOBILON membrane, not washed • Background (3 wells): assay with H2O instead of enzyme • Positive control (4 wells): 3% DMSO instead of compound • Bath control (1 well): no reaction mix
In each experiment, the actual inhibition by reference compound is used for normalization of IC50 values to the basis of an average value of the reference inhibitor:
Normalized IC50=measured IC50 average ref. IC50/measured ref. IC50

T1 sequence (Q13547 whole entry, species assumed): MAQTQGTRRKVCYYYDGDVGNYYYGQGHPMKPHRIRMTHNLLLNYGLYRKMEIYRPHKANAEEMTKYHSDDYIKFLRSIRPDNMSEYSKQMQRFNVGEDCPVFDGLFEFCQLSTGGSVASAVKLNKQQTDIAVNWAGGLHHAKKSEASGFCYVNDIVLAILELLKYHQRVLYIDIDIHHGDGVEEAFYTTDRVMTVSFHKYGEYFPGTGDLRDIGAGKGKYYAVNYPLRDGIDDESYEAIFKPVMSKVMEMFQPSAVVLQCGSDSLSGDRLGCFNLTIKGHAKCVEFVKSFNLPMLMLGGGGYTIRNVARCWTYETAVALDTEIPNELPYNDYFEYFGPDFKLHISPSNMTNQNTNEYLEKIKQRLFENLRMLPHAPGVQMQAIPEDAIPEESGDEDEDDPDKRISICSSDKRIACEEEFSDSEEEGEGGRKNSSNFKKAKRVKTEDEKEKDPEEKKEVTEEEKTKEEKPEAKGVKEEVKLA

Row | SMILES | IC50 [nM]
1 | O=C(CCc1ccc(CN2CCCC(c3c(-c4ccccc4)[nH]c4ccccc34)C2)cc1)NO (centres unmarked) [Compound 16, N-Hydroxy-3-{4-[3-(2-phenyl-1H-indol-3-yl)-piperidin-1-ylmethyl]-phenyl}-propionamide] | 2.2
2 | CC1(C)c2[nH]c3ccccc3c2CCN1Cc1ccc(/C=C/C(=O)NO)cc1 [Compound 22, (E)-3-[4-(1,1-Dimethyl-1,3,4,9-tetrahydro-beta-carbolin-2-ylmethyl)-phenyl]-N-hydroxy-acrylamide] | 150
3 | O=C(/C=C/c1ccc(CN2CCOC(c3nc(-c4ccccc4)no3)C2)cc1)NO (centres unmarked) [Compound 25, (E)-N-Hydroxy-3-{4-[2-(3-phenyl-[1,2,4]oxadiazol-5-yl)-morpholin-4-ylmethyl]-phenyl}-acrylamide] | 39
4 | O=C(/C=C/c1ccc(CN2CCN(Cc3ccccc3)CC2)cc1)NO [Compound 26, (E)-3-[4-(4-Benzyl-piperazin-1-ylmethyl)-phenyl]-N-hydroxy-acrylamide] | 100
5 | O=C(/C=C/c1ccc(CN2CCN(Cc3ccc(Br)cc3)CC2)cc1)NO [Compound 27, (E)-3-{4-[4-(4-Bromo-benzyl)-piperazin-1-ylmethyl]-phenyl}-N-hydroxy-acrylamide] | 130
6 | CCOC(=O)N1CCN(Cc2ccc(/C=C/C(=O)NO)cc2)CC1 [Compound 28, 4-[4-((E)-2-Hydroxycarbamoyl-vinyl)-benzyl]-piperazine-1-carboxylic acid ethyl ester] | 170
7 | O=C(/C=C/c1ccc(CN2CCN(C(=O)OCc3ccccc3)CC2)cc1)NO [Compound 29, 4-[4-((E)-2-Hydroxycarbamoyl-vinyl)-benzyl]-piperazine-1-carboxylic acid benzyl ester] | 140
8 | Cn1c(N2CCN(Cc3ccc(/C=C/C(=O)NO)cc3)CC2)cccc1=O [Compound 30, (E)-N-Hydroxy-3-{4-[4-(1-methyl-6-oxo-1,6-dihydro-pyridin-2-yl)-piperazin-1-ylmethyl]-phenyl}-acrylamide] | 170
9 | O=C(/C=C/c1ccc(CN2CCN(c3nc4ccccc4n3C(=O)c3ccccc3)CC2)cc1)NO [Compound 31, (E)-3-{4-[4-(1-Benzoyl-1H-benzoimidazol-2-yl)-piperazin-1-ylmethyl]-phenyl}-N-hydroxy-acrylamide] | 231
10 | O=C(/C=C/c1ccc(CN2CCCCC2)cc1)NO [Compound 33, (E)-N-Hydroxy-3-(4-piperidin-1-ylmethyl-phenyl)-acrylamide] | 100
11 | O=C(/C=C/c1ccc(CN2CCC3(CC2)OC(=O)Nc2ccccc23)cc1)NO [Compound 34] | 32
12 | O=C(/C=C/c1ccc(CN2CCC(c3cc4ccccc4o3)CC2)cc1)NO [Compound 35, (E)-3-[4-(4-Benzofuran-2-yl-piperidin-1-ylmethyl)-phenyl]-N-hydroxy-acrylamide] | 46
13 | COc1cc(Br)c2oc(C3CCN(Cc4ccc(/C=C/C(=O)NO)cc4)CC3)cc2c1 [Compound 36, (E)-3-{4-[4-(7-Bromo-5-methoxy-benzofuran-2-yl)-piperidin-1-ylmethyl]-phenyl}-N-hydroxy-acrylamide] | 500
14 | O=C(/C=C/c1ccc(CN2CCC3(CC2)NC(=O)N(CC2CC2)C3=O)cc1)NO [Compound 37, (E)-3-[4-(3-Cyclopropylmethyl-2,4-dioxo-1,3,8-triaza-spiro[4.5]dec-8-ylmethyl)-phenyl]-N-hydroxy-acrylamide] | < 430
15 | O=C(/C=C/c1ccc(CN2CCC3(CCc4ccccc4O3)CC2)cc1)NO [Compound 38, (E)-N-Hydroxy-3-(4-(spiro[chroman-2,4′-piperidine]-1′-ylmethyl)phenyl)acrylamide] | 110
16 | CS(=O)(=O)N1CC2(CCN(Cc3ccc(/C=C/C(=O)NO)cc3)CC2)c2ccccc21 [Compound 39] | 27

Row | SMILES | IC50 [nM]
17 | O=C(/C=C/c1ccc(CN2CCC(c3ccc(Cl)cc3CN3CCCC3=O)CC2)cc1)NO [Compound 40, (E)-3-(4-{4-[4-Chloro-2-(2-oxo-pyrrolidin-1-ylmethyl)-phenyl]-piperidin-1-ylmethyl}-phenyl)-N-hydroxy-acrylamide] | 27
18 | O=C(/C=C/c1ccc(CN2CCC(N3CCc4ccccc4C3=O)CC2)cc1)NO [Compound 41, (E)-N-Hydroxy-3-{4-[4-(1-oxo-3,4-dihydro-1H-isoquinolin-2-yl)-piperidin-1-ylmethyl]-phenyl}-acrylamide] | 16
19 | CC(=O)N(C)CC1(c2ccccc2)CCN(Cc2ccc(/C=C/C(=O)NO)cc2)CC1 [Compound 42, (E)-3-(4-{4-[(Acetyl-methyl-amino)-methyl]-4-phenyl-piperidin-1-ylmethyl}-phenyl)-N-hydroxy-acrylamide] | 70
20 | CN1C(=O)C2(CCN(Cc3ccc(/C=C/C(=O)NO)cc3)CC2)c2ccccc21 [Compound 43, (E)-N-Hydroxy-3-(4-((1-methyl-2-oxospiro[indoline-3,4′-piperidine]-1′-yl)methyl)phenyl)acrylamide] | 24
21 | O=C(/C=C/c1ccc(CN2CCC(N3CCNC3=O)CC2)cc1)NO [Compound 44, (E)-N-Hydroxy-3-{4-[4-(2-oxo-imidazolidin-1-yl)-piperidin-1-ylmethyl]-phenyl}-acrylamide] | 50
22 | O=C(/C=C/c1ccc(CN2CCC(CC(=O)NO)(c3ccc(Cl)cc3)CC2)cc1)NO [Compound 45, (E)-3-{4-[4-(4-Chloro-phenyl)-4-hydroxycarbamoylmethyl-piperidin-1-ylmethyl]-phenyl}-N-hydroxy-acrylamide] | 110
23 | O=C(/C=C/c1ccc(CN2CCOCC2)cc1)NO [Compound 47, (E)-N-Hydroxy-3-(4-morpholin-4-ylmethyl-phenyl)-acrylamide] | 300
24 | O=C(/C=C/c1ccc(CN2CCC3(CC2)OCCO3)cc1)NO [Compound 48, (E)-3-[4-(1,4-Dioxa-8-aza-spiro[4.5]dec-8-ylmethyl)-phenyl]-N-hydroxy-acrylamide] | 130
25 | O=C(/C=C/c1ccc(CN2CCC(Cc3ccccc3)CC2)cc1)NO [Compound 49, (E)-3-[4-(4-Benzyl-piperidin-1-ylmethyl)-phenyl]-N-hydroxy-acrylamide] | 37
26 | O=C(/C=C/c1ccc(CN2CCN(S(=O)(=O)c3ccccc3)CC2)cc1)NO [Compound 50, (E)-3-[4-(4-Benzenesulfonyl-piperazin-1-ylmethyl)-phenyl]-N-hydroxy-acrylamide] | 230
27 | O=C(/C=C/c1ccc(CN2CCN(C(=O)c3ccccc3)CC2)cc1)NO [Compound 51, (E)-3-[4-(4-Benzoyl-piperazin-1-ylmethyl)-phenyl]-N-hydroxy-acrylamide] | 110
28 | CCC(=O)N1CCN(Cc2ccc(/C=C/C(=O)NO)cc2)CC1 [Compound 52, (E)-N-Hydroxy-3-[4-(4-propionyl-piperazin-l-ylmethyl)-phenyl]-acrylamide] | 350
29 | CC(C)(C)CC(=O)N1CCN(Cc2ccc(/C=C/C(=O)NO)cc2)CC1 [Compound 53, (E)-3-{4-[4-(3,3-Dimethyl-butyryl)-piperazin-1-ylmethyl]-phenyl}-N-hydroxy-acrylamide] | 160
30 | O=C(/C=C/c1ccc(CN2CCN(C(=O)C3CCCCC3)CC2)cc1)NO [Compound 54, (E)-3-[4-(4-Cyclohexanecarbonyl-piperazin-1-ylmethyl)-phenyl]-N-hydroxy-acrylamide] | 130
31 | Cc1ccc(S(=O)(=O)N2CCN(Cc3ccc(/C=C/C(=O)NO)cc3)CC2)cc1 [Compound 55, (E)-N-Hydroxy-3-{4-[4-(toluene-4-sulfonyl)-piperazin-1-ylmethyl]-phenyl}-acrylamide] | 230
32 | Cc1cccc(S(=O)(=O)N2CCN(Cc3ccc(/C=C/C(=O)NO)cc3)CC2)c1 [Compound 56, (E)-N-Hydroxy-3-{4-[4-(toluene-3-sulfonyl)-piperazin-1-ylmethyl]-phenyl}-acrylamide] | 260
